Experimental data taken from US9453062B2, “Glucose dependent insulinotropic polypeptide analogs, pharmaceutical compositions and use thereof” (Beijing Hanmi Pharmaceutical Co., Ltd., priority 2011, dated 2016).
pEC50: −log10 of the molar value. *1 amine or outer side, *2 acyl side, *3 side chain or, on linkers, in order; H or OH if unused. Where a SMILES comes first, the peptide text is derived from it. Side-chain parts run from the residue outwards. [ ]: non-standard residue; d: D form. The star is where a group is joined. γGlu = O=C(O)[C@H](CCC(=O)[*:2])N[*:1]; Palmitoyl = CCCCCCCCCCCCCCCC(=O)*; Aib = CC(C)(N)C(=O)O

Key:
hGLP-1R = target: T1, hGLP-1R (Homo sapiens, UniProt P43220); experiment: hGLP-1R-mediated cAMP induction assay in CHO cell line; assay type: cell-based; conditions: Table 3; for pEC50: CHO hGLP1R cells; for GLP-1 Receptor Relative Potency: against native GLP-1;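 for all read-outs here: CHO cells expressing human GLP-1R, treated 30 min at 37 °C, intracellular cAMP measured by competitive fluorescent immunoassay and converted via a cAMP standard curve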
T1 construct: expressed in transfected cells; host or cells: CHO
T1 sequence (P43220 24-463): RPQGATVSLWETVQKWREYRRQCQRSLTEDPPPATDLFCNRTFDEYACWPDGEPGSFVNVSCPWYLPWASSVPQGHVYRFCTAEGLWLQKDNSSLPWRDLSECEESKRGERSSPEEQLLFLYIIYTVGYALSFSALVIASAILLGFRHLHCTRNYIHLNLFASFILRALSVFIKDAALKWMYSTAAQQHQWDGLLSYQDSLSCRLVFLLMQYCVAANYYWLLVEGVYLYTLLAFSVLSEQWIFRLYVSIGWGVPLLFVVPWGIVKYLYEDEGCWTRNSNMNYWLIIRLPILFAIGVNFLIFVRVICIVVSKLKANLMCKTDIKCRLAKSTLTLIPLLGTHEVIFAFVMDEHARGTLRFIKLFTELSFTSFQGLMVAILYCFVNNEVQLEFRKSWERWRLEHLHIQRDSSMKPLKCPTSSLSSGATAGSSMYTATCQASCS

hGIPR = target: T2, hGIPR (Homo sapiens, UniProt P48546); experiment: hGIPR-mediated cAMP induction assay in CHO cell line; assay type: cell-based; conditions: Table 3; for pEC50: CHO hGIPR cells; for GIP Receptor Relative Potency: against native GIP
T2 construct: expressed in transfected cells; host or cells: CHO
T2 sequence (P48546 22-466): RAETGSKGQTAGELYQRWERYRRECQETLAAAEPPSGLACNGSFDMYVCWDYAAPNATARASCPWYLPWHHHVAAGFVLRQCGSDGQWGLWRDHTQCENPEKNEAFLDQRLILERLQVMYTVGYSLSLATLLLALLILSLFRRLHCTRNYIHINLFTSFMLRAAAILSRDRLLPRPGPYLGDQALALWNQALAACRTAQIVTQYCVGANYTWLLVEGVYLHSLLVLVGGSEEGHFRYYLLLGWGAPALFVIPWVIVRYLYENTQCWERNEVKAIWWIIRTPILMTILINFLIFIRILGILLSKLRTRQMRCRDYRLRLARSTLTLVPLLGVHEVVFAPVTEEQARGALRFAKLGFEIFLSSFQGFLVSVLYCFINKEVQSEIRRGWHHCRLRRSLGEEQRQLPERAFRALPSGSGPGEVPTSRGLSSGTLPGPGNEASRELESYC
Source text: The cAMP in the sample or standard competes with horseradish peroxidase (HRP)-labeled cAMP conjugate for binding sites on the anti-cAMP antibodies. In the absence of cAMP, most of the HRP-cAMP conjugate is bound to the antibody. Increasing concentrations of cAMP competitively decrease the amount of bound conjugate, thus decreasing measured HRP activity.
Assay kit: CatchPoint™ Cyclic-AMP Fluorescent Assay Kit (Molecular Devices, Product # R8088)
Cell lines: CHO hGLP1R, CHO hGIPR
Cell seeding: CHO hGLP1R or CHO hGIPR cells: 10,000 cells/well/100 uL at 37° C. 5% CO2 overnight.
Gently aspirate off media and wash the cells with KRBG Buffer, 100 uL/well.
Incubate the plate for 10 min at room temperature. Then add the KRBG buffer with 3× final concentration of the tested samples (5-foled series diluted from 5,000 nM), 50 uL/well. Incubate the plate at 37° C. 5% CO2 for 30 min.
Add 50 uL of Lysis buffer to each well and put the plate on a shaker for 10 min.
Place 40 uL of samples and analyze in appropriate wells. And test the cAMP concentration in each sample by following the manufacture's instruction.
Detect the fluorescence signal at Ex: 490 nm and Em: 530 nm. Transfer the FI signal to cAMP concentration by the cAMP standard curve. The Dose-response curve and EC50 were obtained by logistic fitting of Origin 8.

SMILES | pEC50 (hGLP-1R) | GLP-1 Receptor Relative Potency (hGLP-1R) | pEC50 (hGIPR) | GIP Receptor Relative Potency (hGIPR)
CCCCCCCCCCCCCCCC(=O)N[C@@H](CCC(=O)NCCCC[C@H](NC(=O)[C@H](CO)NC(=O)[C@@H]1CCCN1C(=O)[C@@H]1CCCN1C(=O)[C@@H]1CCCN1C(=O)[C@H](C)NC(=O)CNC(=O)[C@H](CO)NC(=O)[C@H](CO)NC(=O)[C@@H]1CCCN1C(=O)CNC(=O)CNC(=O)[C@H](CCCCN)NC(=O)[C@@H](NC(=O)[C@H](CC(C)C)NC(=O)[C@H](Cc1c[nH]c2ccccc12)NC(=O)[C@H](C)NC(=O)[C@@H](NC(=O)[C@H](Cc1ccccc1)NC(=O)[C@H](CCC(=O)O)NC(=O)[C@H](CCCNC(=N)N)NC(=O)[C@@H](NC(=O)[C@H](C)NC(=O)[C@H](CCC(=O)O)NC(=O)[C@H](CCCCN)NC(=O)[C@H](CCC(=O)O)NC(=O)[C@H](CCSC)NC(=O)[C@H](Cc1ccc(O)cc1)NC(=O)[C@@H](NC(=O)[C@H](CO)NC(=O)[C@H](Cc1ccc(O)cc1)NC(=O)[C@H](CC(=O)O)NC(=O)[C@H](CO)NC(=O)[C@@H](NC(=O)[C@H](Cc1ccccc1)NC(=O)[C@@H](NC(=O)CNC(=O)[C@H](CCC(=O)O)NC(=O)C(C)(C)NC(=O)[C@@H](N)Cc1ccc(O)cc1)[C@@H](C)O)[C@@H](C)O)[C@@H](C)CC)C(C)C)[C@@H](C)CC)C(C)C)C(N)=O)C(=O)O [Compound 090] | 9.73 | 568.6 | 11.05 | 1311
CCCCCCCCCCCCCCCC(=O)N[C@@H](CCC(=O)N[C@@H](CCC(=O)NCCCC[C@H](NC(=O)[C@H](CO)NC(=O)[C@@H]1CCCN1C(=O)[C@@H]1CCCN1C(=O)[C@@H]1CCCN1C(=O)[C@H](C)NC(=O)CNC(=O)[C@H](CO)NC(=O)[C@H](CO)NC(=O)[C@@H]1CCCN1C(=O)CNC(=O)CNC(=O)[C@H](CCCCN)NC(=O)[C@@H](NC(=O)[C@H](CC(C)C)NC(=O)[C@H](Cc1c[nH]c2ccccc12)NC(=O)[C@H](C)NC(=O)[C@@H](NC(=O)[C@H](Cc1ccccc1)NC(=O)[C@H](CCC(=O)O)NC(=O)[C@H](CCCNC(=N)N)NC(=O)[C@@H](NC(=O)[C@H](C)NC(=O)[C@H](CCC(=O)O)NC(=O)[C@H](CCCCN)NC(=O)[C@H](CCC(=O)O)NC(=O)[C@H](CCSC)NC(=O)[C@H](Cc1ccc(O)cc1)NC(=O)[C@@H](NC(=O)[C@H](CO)NC(=O)[C@H](Cc1ccc(O)cc1)NC(=O)[C@H](CC(=O)O)NC(=O)[C@H](CO)NC(=O)[C@@H](NC(=O)[C@H](Cc1ccccc1)NC(=O)[C@@H](NC(=O)CNC(=O)[C@H](CCC(=O)O)NC(=O)C(C)(C)NC(=O)[C@@H](N)Cc1ccc(O)cc1)[C@@H](C)O)[C@@H](C)O)[C@@H](C)CC)C(C)C)[C@@H](C)CC)C(C)C)C(N)=O)C(=O)O)C(=O)O [Compound 091] | 9.94 | 921.5 | 10.39 | 287.8
CCCCCCCCCCCCCCCC(=O)N[C@@H](CCC(=O)NCCCC[C@H](NC(=O)[C@@H](NC(=O)[C@H](C)NC(=O)[C@H](CCC(=O)O)NC(=O)[C@H](CCCCN)NC(=O)[C@H](CCC(=O)O)NC(=O)[C@H](CCSC)NC(=O)[C@H](Cc1ccc(O)cc1)NC(=O)[C@@H](NC(=O)[C@H](CO)NC(=O)[C@H](Cc1ccc(O)cc1)NC(=O)[C@H](CC(=O)O)NC(=O)[C@H](CO)NC(=O)[C@@H](NC(=O)[C@H](Cc1ccccc1)NC(=O)[C@@H](NC(=O)CNC(=O)[C@H](CCC(=O)O)NC(=O)C(C)(C)NC(=O)[C@@H](N)Cc1ccc(O)cc1)[C@@H](C)O)[C@@H](C)O)[C@@H](C)CC)C(C)C)C(=O)N[C@@H](CCC(=O)O)C(=O)N[C@@H](Cc1ccccc1)C(=O)N[C@H](C(=O)N[C@@H](C)C(=O)N[C@@H](Cc1c[nH]c2ccccc12)C(=O)N[C@@H](CC(C)C)C(=O)N[C@H](C(=O)N[C@@H](CCCCN)C(=O)NCC(=O)NCC(=O)N1CCC[C@H]1C(=O)N[C@@H](CO)C(=O)N[C@@H](CO)C(=O)NCC(=O)N[C@@H](C)C(=O)N1CCC[C@H]1C(=O)N1CCC[C@H]1C(=O)N1CCC[C@H]1C(=O)N[C@@H](CO)C(N)=O)C(C)C)[C@@H](C)CC)C(=O)O [Compound 092] (H-Y[Aib]EGTFTSDYSIYMEKEAVK([γGlu-Palmitoyl])EFIAWLVKGGPSSGAPPPS-NH2) | 9.41 | 256.4 | 9.82 | 26.6
CCCCCCCCCCCCCCCC(=O)N[C@@H](CCC(=O)N[C@@H](CCC(=O)NCCCC[C@H](NC(=O)[C@@H](NC(=O)[C@H](C)NC(=O)[C@H](CCC(=O)O)NC(=O)[C@H](CCCCN)NC(=O)[C@H](CCC(=O)O)NC(=O)[C@H](CCSC)NC(=O)[C@H](Cc1ccc(O)cc1)NC(=O)[C@@H](NC(=O)[C@H](CO)NC(=O)[C@H](Cc1ccc(O)cc1)NC(=O)[C@H](CC(=O)O)NC(=O)[C@H](CO)NC(=O)[C@@H](NC(=O)[C@H](Cc1ccccc1)NC(=O)[C@@H](NC(=O)CNC(=O)[C@H](CCC(=O)O)NC(=O)C(C)(C)NC(=O)[C@@H](N)Cc1ccc(O)cc1)[C@@H](C)O)[C@@H](C)O)[C@@H](C)CC)C(C)C)C(=O)N[C@@H](CCC(=O)O)C(=O)N[C@@H](Cc1ccccc1)C(=O)N[C@H](C(=O)N[C@@H](C)C(=O)N[C@@H](Cc1c[nH]c2ccccc12)C(=O)N[C@@H](CC(C)C)C(=O)N[C@H](C(=O)N[C@@H](CCCCN)C(=O)NCC(=O)NCC(=O)N1CCC[C@H]1C(=O)N[C@@H](CO)C(=O)N[C@@H](CO)C(=O)NCC(=O)N[C@@H](C)C(=O)N1CCC[C@H]1C(=O)N1CCC[C@H]1C(=O)N1CCC[C@H]1C(=O)N[C@@H](CO)C(N)=O)C(C)C)[C@@H](C)CC)C(=O)O)C(=O)O [Compound 093] (H-Y[Aib]EGTFTSDYSIYMEKEAVK([γGlu-γGlu-Palmitoyl])EFIAWLVKGGPSSGAPPPS-NH2) | 9.37 | 232.5 | 10.52 | 133.3
CCCCCCCCCCCCCCCC(=O)N[C@@H](CCC(=O)NCCCC[C@H](NC(=O)[C@@H](NC(=O)[C@H](CC(C)C)NC(=O)[C@H](Cc1c[nH]c2ccccc12)NC(=O)[C@H](C)NC(=O)[C@@H](NC(=O)[C@H](Cc1ccccc1)NC(=O)[C@H](CCC(=O)O)NC(=O)[C@H](CCCNC(=N)N)NC(=O)[C@@H](NC(=O)[C@H](C)NC(=O)[C@H](CCC(=O)O)NC(=O)[C@H](CCCCN)NC(=O)[C@H](CCC(=O)O)NC(=O)[C@H](CCSC)NC(=O)[C@H](Cc1ccc(O)cc1)NC(=O)[C@@H](NC(=O)[C@H](CO)NC(=O)[C@H](Cc1ccc(O)cc1)NC(=O)[C@H](CC(=O)O)NC(=O)[C@H](CO)NC(=O)[C@@H](NC(=O)[C@H](Cc1ccccc1)NC(=O)[C@@H](NC(=O)CNC(=O)[C@H](CCC(=O)O)NC(=O)C(C)(C)NC(=O)[C@@H](N)Cc1ccc(O)cc1)[C@@H](C)O)[C@@H](C)O)[C@@H](C)CC)C(C)C)[C@@H](C)CC)C(C)C)C(=O)NCC(=O)NCC(=O)N1CCC[C@H]1C(=O)N[C@@H](CO)C(=O)N[C@@H](CO)C(=O)NCC(=O)N[C@@H](C)C(=O)N1CCC[C@H]1C(=O)N1CCC[C@H]1C(=O)N1CCC[C@H]1C(=O)N[C@@H](CO)C(N)=O)C(=O)O [Compound 094] | 9.17 | 149.2 | 9.07 | 4.7
